Tests used:
Assay type in all cases: in vivo
[1] = tested on: caterpillars of the cotton boll worm (Heliothis armigera); test: Heliothis armigera test (cabbage leaf dip, kill rate); conditions: single active compound
From the text: (§1) The expected action for a given combination of two active compounds can be calculated as follows, according to S. R. Colby, Weeds 15 (1967), 20-22:
(§2) • X is the kill rate, expressed as a percentage of the untreated control, when employing active compound A at an application rate of m g/ha or in a concentration of m ppm, • Y is the kill rate, expressed as a percentage of the untreated control, when employing active compound B at an application rate of n g/ha or in a concentration of n ppm and • E is the kill rate, expressed as a percentage of the untreated control, when employing active compounds A and B at application rates of m and n g/ha or in a concentration of m and n ppm, then
(§3) If the actual insecticidal kill rate exceeds the calculated value, the action of the combination is superadditive, i.e. a synergistic effect is present. In this case, the actually observed kill rate must exceed the value calculated using the above formula for the expected kill rate (E).
(§4) To produce a suitable preparation of active compound, 1 part by weight of active compound is mixed with the stated amounts of solvent and emulsifier, and the concentrate is diluted with emulsifier-containing water to the desired concentration.
Cabbage leaves (Brassica oleracea) are treated by being dipped into the preparation of active compound of the desired concentration and are populated with caterpillars of the cotton boll worm (Heliothis armigera) while the leaves are still moist.
(§5) After the desired period of time, the kill in % is determined. 100% means that all caterpillars have been killed; 0% means that none of the caterpillars have been killed. The kill rates determined are calculated using Colby's formula (see page 43).

[2] = tested on: larvae of the mustard beetle (Phaedon cochleariae); test: Phaedon cochleariae larvae test (cabbage leaf dip, kill rate); conditions: single active compound
From the text: as §1, §2, §3
Phaedon cochleariae Larvae Test
(§6) To produce a suitable preparation of active compound, 1 part by weight of active compound is mixed with the stated amounts of solvent and emulsifier, and the concentrate is diluted with emulsifier-containing water to the desired concentration. […]
(§7) After the desired period of time, the kill in % is determined. […] The kill rates determined are calculated using Colby's formula (see page 43).

[3] = tested on: caterpillars of the diamond back moth (Plutella xylostella, normally sensitive strain); test: Plutella xylostella test (normally sensitive strain; cabbage leaf dip, kill rate); conditions: single active compound
From the text: as §1, §2, §3
Plutella xylostella Test (Normally Sensitive Strain)
as §4
Cabbage leaves (Brassica oleracea) are treated by being dipped into the preparation of active compound of the desired concentration and are populated with larvae of caterpillars of the diamond back moth (Plutella xylostella, normally sensitive strain) while the leaves are still moist.
After the desired period of time, the kill in % is determined. 100% means that all caterpillars have been killed; 0% means that none of the caterpillars have been killed. The kill rates determined are calculated using Colby's formula (see sheet 1).

[4] = tested on: caterpillars of the armyworm (Spodoptera frugiperda); test: Spodoptera frugiperda test (cabbage leaf dip, kill rate); conditions: single active compound
From the text: as §1, §2, §3
Spodoptera frugiperda Test
as §4
Cabbage leaves (Brassica oleracea) are treated by being dipped into the preparation of active compound of the desired concentration and are populated with caterpillars of the armyworm (Spodoptera frugiperda) while the leaves are still moist.
as §5

[5] = tested on: green peach aphid (Myzus persicae); test: Myzus persicae test (infested cabbage leaf dip, kill rate); conditions: single active compound, 0.8 ppm
From the text: as §1, §2, §3, §6, §7

Row | SMILES | Kill rate in % after 6 d, found ([1]; 4 ppm) | Kill rate in % after 6 d, found ([2]; 4 ppm) | Kill rate in % after 6 d, found ([3]; 4 ppm) | Kill rate in % after 6 d, found ([4]; 4 ppm) | Kill rate in % after 6 d, found [5] | Kill rate in % after 6 d, found ([1]; 0.0064 ppm) | Kill rate in % after 6 d, found ([2]; 0.0064 ppm) | Kill rate in % after 6 d, found ([3]; 0.0064 ppm) | Kill rate in % after 6 d, found ([4]; 0.0064 ppm)
1 | O=[N+]([O-])/N=C1\NCCN1Cc1ccc(Cl)nc1 [Ia, imidacloprid] | 0% | 20% | 0% | 0% | – | – | – | – | –
2 | CN/C(=N\[N+](=O)[O-])NCc1cnc(Cl)s1 [Im, clothianidin] | 40% | – | 0% | – | 30% | – | – | – | –
3 | N#C/N=C1\SCCN1Cc1ccc(Cl)nc1 [Ik, thiacloprid] | 25% | – | 0% | 0% | – | – | – | – | –
4 | Cc1cc(Cl)cc(C(=O)NC(C)C)c1NC(=O)c1cc(C(F)(F)F)nn1-c1ncccc1Cl [II-1-9] | – | – | – | – | 0% | 0% | 0% | 20% | 0%

Source: patent US8993483B2, “Combination of active substances with insecticidal properties” (Bayer Intellectual Property GmbH, priority 2003, dated 2015)
